Test results published in EP0181128A2, “N6-bicycloadenosines” (WARNER-LAMBERT COMPANY, priority 1984, dated 1986).
Read-outs that look alike come from different tables or passages of the source.

Experiments:
adenosine A1 receptor = target: T1, adenosine A1 receptor (Rattus norvegicus, UniProt P25099); experiment: Adenosine Receptor Binding - A1 Receptor Affinity (RBA1), [3H]-CHA displacement in brain membranes; parameters: species or system rats; details: 1.0 nM [3H]-CHA, rat whole brain membranes, one hour at 25°C; read-out: RBA-1
T1 sequence (P25099 1-326): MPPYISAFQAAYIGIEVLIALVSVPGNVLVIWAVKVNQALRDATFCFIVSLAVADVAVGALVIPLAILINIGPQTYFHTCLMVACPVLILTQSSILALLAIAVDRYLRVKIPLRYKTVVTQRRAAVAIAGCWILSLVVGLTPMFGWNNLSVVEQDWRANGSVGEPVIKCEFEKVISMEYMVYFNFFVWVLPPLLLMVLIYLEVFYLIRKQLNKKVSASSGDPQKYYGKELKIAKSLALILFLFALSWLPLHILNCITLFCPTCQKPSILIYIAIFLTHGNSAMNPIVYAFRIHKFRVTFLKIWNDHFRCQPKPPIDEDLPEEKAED
Method: Adenosine Receptor Binding - A1 Receptor Affinity (RBA1)
The supernatant was discarded, and the pellet was resuspended and centrifuged as before.
Incubation volume was 2 ml. Unbound [^3H]-CHA was separated by rapid filtration under reduced pressure through Whatman glass fiber (GF/B) filters.
Nonspecific binding was defined as the binding which occurred in the presence of 1 mM theophylline. […] Since the amount of radioligand bound was a small fraction of the total amount added, free radioligand was defined as the concentration (nM) of radioligand added to the incubation mixture.

Carrageenan pleurisy = Carrageenan pleurisy assay (immunoinflammatory test); format: in vivo, rats; details: Rattus norvegicus; for ED50: 4 h, four hours after carrageenan, compound given one hour prior to carrageenan
Method: Assessment of immunoinflammatory or antiinflammatory activity is provided by the carrageenan pleurisy assay. Carrageenan pleurisy is induced as previously described by Carter, G. W., et al., in J. Pharm. Pharmacol 34:66-67, 1982. Carrageenan (310 ug/rat) is injected intrapleurally in a 0.25 ml volume of pyrogen-free saline. Four hours later, the rats are sacrificed and 2 ml of a phenol red solution (325 mg phenol red in 1 liter of 0.05 M phosphate buffered saline) are added to each pleural cavity. The contents of the cavities are mixed and transferred to glass test tubes. A 50 ul aliquot is removed from each tube and exudate cells are counted after red blood cells lysis (with Zapoglobin; Coulter Electronics, Hialeah FL) using a Coulter model ZBI counter. The remaining exudate-phenol red mixture is centrifuged at 750 xg for 15 minutes. One hundred µl of the supernatent fluid is diluted with 3.9 ml of phosphate buffer (0.072 M of tribasic sodium phosphate, Na3PO4·12H2O, in water) and the absorbance is measured at 560 nm.
Exudate volume is calculated as follows: [formula] where V1 = unknown volume of exudate, V2 K volume of dye added to cavity (2 ml), A1 = absorbance of exudate (assumed to be zero), A2 = absorbance of the phenol red solution, A3 = absorbance of exudate and phenol red solution.
Inhibition of exudate or formation is calculated by the following equations: [formula] [formula] ID50 values are calculated by Probit analysis.
The compound of Example 1 was administered one hour prior to carrageenan injection.

male Swiss-Webster mice = experiment: Antiwrithing (AW) test (analgesic test), acetic acid-induced writhing; format: in vivo; details: Mus musculus, sc; subcutaneous, 20 minutes before acetic acid (0.6%, 10 ml/kg) i.p.; dose suppressing writhing by 50%
Method: The antiwrithing (AW) test provides preliminary assessment of compounds with potential analgesic activity. The test is performed in male Swiss-Webster mice. Compounds are administered subcutaneously in aqueous 0.2% methylcellulose or other appropriate vehicles in volumes of 10 ml/kg. Dosages represent active moiety.
Acetic acid (0.6%, 10 ml/kg) is injected intraperitoneally 20 minutes after administration of the adenosine agonist. Writhing movements are counted for five minutes starting seven minutes after the acetic acid injection. Writhing is defined as abdominal constriction and stretching of the body and hind legs with concave arching of the back. Data are.expressed as ED50 values, where the ED50 is the dose necessary to suppress writhing by 50% relative to vehicle controls. ED50 values are calculated by nonlinear regression analysis.

adenosine A2 receptor = adenosine A2 receptor (Rattus norvegicus, UniProt P30543); experiment: Adenosine Receptor Binding - A2 Receptor Affinity (RBA2), [3H]NECA displacement in striatal membranes; parameters: species or system rats; details: 4 nM [3H]NECA, 50 nM N6-cyclopentyladenosine, 60 minutes at 25°C, read-out: RBA-2
Method: Adenosine Receptor Binding - A2 Receptor Affinity (RBA2)
Brains from 200-500 g mixed sex Sprague-Dawley rats were purchased from Pel-Freez (Rogers, Arkansas). […] Brains were thawed and then kept on ice while the striata were dissected out. […] When needed, tissue was thawed at room temperature, disrupted in a Polytron, and kept on ice until used.
Test compounds were dissolved at 10 mM in dimethylsulfoxide on the same day as the experiment, and diluted in dimethylsulfoxide to 100x the final incubation concentration. […] [^3H]NECA was diluted to 40 nM in Tris. […] After all additions, the rack of tubes was vortexed, and the tubes were then incubated for 60 min at 25°C in a shaking water bath. The rack of tubes was vortexed an additional time halfway through the incubation.
Incubations were terminated by filtration through 2.4 cm GF/B filters under reduced pressure. Each tube was filtered as follows: the contents of the tube were poured onto the filter, 4 ml of ice-cold Tris were added to the tube and the contents poured onto the filter, and the filter was washed twice with 4 ml of ice-cold Tris. The filtration was complete in about twelve seconds. Filters were put in scintillation vials, 8 ml of Formula 947 scintillation fluid added, and the vials left overnight, shaken, and counted in a liquid scintillation counter at 40% efficiency.

Chain of adenosine A2 receptor (P30543 whole entry): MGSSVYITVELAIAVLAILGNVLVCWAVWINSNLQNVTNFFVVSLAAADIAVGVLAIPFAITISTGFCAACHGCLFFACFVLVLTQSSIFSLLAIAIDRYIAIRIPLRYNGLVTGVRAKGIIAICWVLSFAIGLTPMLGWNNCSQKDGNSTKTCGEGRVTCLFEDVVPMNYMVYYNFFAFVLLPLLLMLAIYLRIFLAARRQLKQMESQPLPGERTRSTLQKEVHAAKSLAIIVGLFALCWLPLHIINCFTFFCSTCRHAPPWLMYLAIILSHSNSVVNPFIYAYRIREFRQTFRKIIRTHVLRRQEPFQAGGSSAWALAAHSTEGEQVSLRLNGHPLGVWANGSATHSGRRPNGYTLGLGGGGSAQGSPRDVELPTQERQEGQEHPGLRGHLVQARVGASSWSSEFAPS

IC50 (adenosine A1 receptor) [nM]	IC50 (adenosine A2 receptor) [nM]	SMILES	inhibition at 0.3 mg/kg (Carrageenan pleurisy; read-out: % Inhibition Exudate) [%]	inhibition at 0.3 mg/kg (Carrageenan pleurisy; read-out: % Inhibition WBC) [%]	inhibition at 1 mg/kg (Carrageenan pleurisy; read-out: % Inhibition Exudate) [%]	inhibition at 1 mg/kg (Carrageenan pleurisy; read-out: % Inhibition WBC) [%]	ED50 (male Swiss-Webster mice) [mg/kg]	ED50 (Carrageenan pleurisy; exudate cells (WBC), read-out: ID50 (mg/kg) WBC) [mg/kg]	ED50 (Carrageenan pleurisy; exudate volume, read-out: ID50 (mg/kg) Exudate) [mg/kg]	inhibition at 0.1 mg/kg (Carrageenan pleurisy; read-out: % Inhibition Exudate) [%]	inhibition at 0.1 mg/kg (Carrageenan pleurisy; read-out: % Inhibition WBC) [%]	inhibition at 0.2 mg/kg (Carrageenan pleurisy; read-out: % Inhibition Exudate) [%]	inhibition at 0.2 mg/kg (Carrageenan pleurisy; read-out: % Inhibition WBC) [%]	inhibition at 0.4 mg/kg (Carrageenan pleurisy; read-out: % Inhibition Exudate) [%]	inhibition at 0.4 mg/kg (Carrageenan pleurisy; read-out: % Inhibition WBC) [%]	inhibition at 0.8 mg/kg (Carrageenan pleurisy; read-out: % Inhibition Exudate) [%]	inhibition at 0.8 mg/kg (Carrageenan pleurisy; read-out: % Inhibition WBC) [%]
1.4		OCC1OC(n2cnc3c(NC4CC5CCC4C5)ncnc32)C(O)C1O (stereo not drawn) [Example 2, N6-exo-Bicyclo[2.2.1]heptyladenosine]	24.3	25.7	22.9	52.9											
0.85		OCC1OC(n2cnc3c(NC4CC5CCC4C5)ncnc32)C(O)C1O (stereo not drawn) [Example 1, N6-endo-Bicyclo[2.2.1]heptyl adenosine]					0.03	0.12	0.15	49.3	74.1	60	70	81.3	90	42.7	68.4
0.69	3090	OC1C(CCl)OC(n2cnc3c(NC4CC5CCC4C5)ncnc32)C1O (stereo not drawn) [Example 5, N6-2-endo-norbornyl-5'-chloro-5'-deoxy-adenosine]	16.8	40						11.7	18.4						
